Article PMC2010749, “Cytotoxic and clastogenic effects of soluble and insoluble compounds containing hexavalent and trivalent chromium” (British Journal of Cancer, 1981)

Assays:
[1] = test system: rats; settings: s.c. in rats; 0% in the controls; ref Maltoni (1976); cited from earlier work
[2] = test system: Salmonella; settings: ref Petrilli & De Flora (1978a,b) and De Flora (1981), cited from earlier work; for Mutagenicity in the plate test: dissolved in 0.5N NaOH
[3] = test system: BHK 21 Syrian hamster fibroblast line; assay: DNA, RNA and protein syntheses in BHK monolayers exposed to filtered medium preincubated with Cr compounds; type: cell-based;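 also: DNA, RNA and protein synthesis in BHK cultures assessed by incorporation of labelled precursors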
Description: (§1) Cell growth and labelling.-The reduction in cell growth, based on the nucleic acid content (DNA + RNA) of treated cultures, and the inhibition of DNA, RNA and protein syn- thesis, based on the incorporation of labelled precursors, were determined, to evaluate the cytotoxic effects of Cr compounds in BHK cell cultures. […] Three to four thousand cells were then examined for each dose level and each time interval, and the mitotic index (the ratio of all mitoses to the total number of cells) and the frequencies of each mitotic phase (the ratios of cells in each phase to total mitoses) were determined. […] Chromium compounds and cell treatments.- The tested compounds of Cr(VI) and Cr(III) and their physico-chemical properties are listed in Table I. In many experiments in which most of them were highly insoluble or only partially soluble (see Tables I, IV, V), Cr compounds were directly suspended in the growth medium used for treatments. […] The cytotoxic and clastogenic effects were usually deter- mined just at the end of Cr treatments, but sometimes the treated cells were washed with HBSS and incubated with normal growth medium, so that the effects of Cr were deter- mined at different times after the end of treatment (see Fig. 3 and Table VII).

[4] = test system: BHK 21 Syrian hamster fibroblast line; assay: DNA, RNA and protein syntheses in BHK cells, Cr compounds added directly to medium; type: cell-based; settings: 48 h in MEM
Description: as §1

[5] = test system: BHK 21 Syrian hamster fibroblast line; assay: Cell growth of BHK cultures (DNA + RNA content), Cr compounds added directly to medium; type: cell-based; settings: 48 h in MEM
Description: (§2) Cell growth and labelling.-The reduction in cell growth, based on the nucleic acid content (DNA + RNA) of treated cultures, and the inhibition of DNA, RNA and protein syn- thesis, based on the incorporation of labelled precursors, were determined, to evaluate the cytotoxic effects of Cr compounds in BHK cell cultures. […] Three to four thousand cells were then examined for each dose level and each time interval, and the mitotic index (the ratio of all mitoses to the total number of cells) and the frequencies of each mitotic phase (the ratios of cells in each phase to total mitoses) were determined. […] Chromium compounds and cell treatments.- The tested compounds of Cr(VI) and Cr(III) and their physico-chemical properties are listed in Table I. In many experiments in which most of them were highly insoluble or only partially soluble (see Tables I, IV, V), Cr compounds were directly suspended in the growth medium used for treatments. In the experiments on the induction of chromosome aberrations and SCE in CHO cells, almost complete solubilization was obtained in N HCI for Cr(III) compounds and 0-5N NaOH for Cr(VI) compounds, after which they were diluted with MEM to the final concentrations specified in Table IX. […] The cytotoxic and clastogenic effects were usually deter- mined just at the end of Cr treatments, but sometimes the treated cells were washed with HBSS and incubated with normal growth medium, so that the effects of Cr were deter- mined at different times after the end of treatment (see Fig. 3 and Table VII).

[6] = test system: HEp-2 human epithelial-like line; settings: 2 h exposure to medium preincubated 2 days with 0.5 mg/ml in presence of BHK cells
Description: as §1

[7] = test system: CHO Chinese hamster fibroblast line; assay: Cell growth of CHO cultures (DNA + RNA content); type: cell-based; settings: 32 h in MEM
Description: as §1

[8] = Solubility of chromium compounds (Table I)
Description: as §2

[9] = test system: bacteria and mammalian cells in culture; settings: 1979, De Flora, 1981, cited from earlier work
[10] = 0.5 mg/ml, preincubation 2 h, monolayers exposed 24 h
[11] = 0.5 mg/ml, preincubation 1 d, monolayers exposed 24 h
[12] = 0.5 mg/ml, preincubation 2 d, monolayers exposed 24 h
[13] = 0.5 mg/ml, preincubation 3 d, monolayers exposed 24 h
[14] = 0.5 mg/ml, preincubation 6 d, monolayers exposed 24 h
[15] = preincubated 48 h with 0.5 mg/ml, cells exposed 24 h
[16] = preincubated 48 h with 0.15/0.05 mg/ml (one value for both), cells exposed 24 h

## [O]=[Cr](=[O])([O-])[O-].[O]=[Pb].[Pb+2] [Chromium orange, Basic lead chromate]
[1]
  Frequency of sarcomas at the site of injection: 65-90%
[2]
  Mutagenicity in the plate test: positive
  Mutagenicity in the spot test: mutagens
[3]; [10]
  DNA synthesis, preinc. in MEM: 100 % of controls
  DNA synthesis, preinc. in MEM+BHK: 100 % of controls
  Protein synthesis, preinc. in MEM: 100 % of controls
  Protein synthesis, preinc. in MEM+BHK: 100 % of controls
  RNA synthesis, preinc. in MEM: 100 % of controls
  RNA synthesis, preinc. in MEM+BHK: 100 % of controls
[3]; [11]
  DNA synthesis, preinc. in MEM: 84 % of controls
  DNA synthesis, preinc. in MEM+BHK: 95 % of controls
  Protein synthesis, preinc. in MEM: 100 % of controls
  Protein synthesis, preinc. in MEM+BHK: 100 % of controls
  RNA synthesis, preinc. in MEM: 100 % of controls
  RNA synthesis, preinc. in MEM+BHK: 100 % of controls
[3]; [12]
  DNA synthesis, preinc. in MEM: 54 % of controls
  DNA synthesis, preinc. in MEM+BHK: 86 % of controls
  Protein synthesis, preinc. in MEM: 92 % of controls
  Protein synthesis, preinc. in MEM+BHK: 100 % of controls
  RNA synthesis, preinc. in MEM: 85 % of controls
  RNA synthesis, preinc. in MEM+BHK: 96 % of controls
[3]; [13]
  DNA synthesis, preinc. in MEM: 47 % of controls
  DNA synthesis, preinc. in MEM+BHK: 78 % of controls
  Protein synthesis, preinc. in MEM: 100 % of controls
  Protein synthesis, preinc. in MEM+BHK: 100 % of controls
  RNA synthesis, preinc. in MEM: 81 % of controls
  RNA synthesis, preinc. in MEM+BHK: 100 % of controls
[3]; [14]
  DNA synthesis, preinc. in MEM: 21 % of controls
  DNA synthesis, preinc. in MEM+BHK: 52 % of controls
  Protein synthesis, preinc. in MEM: 78 % of controls
  Protein synthesis, preinc. in MEM+BHK: 92 % of controls
  RNA synthesis, preinc. in MEM: 66 % of controls
  RNA synthesis, preinc. in MEM+BHK: 72 % of controls
[3]; [15]
  DNA synthesis, preinc. in MEM: 62 % of controls
  DNA synthesis, preinc. in MEM+BHK: 100 % of controls
  Protein synthesis, preinc. in MEM: 100 % of controls
  Protein synthesis, preinc. in MEM+BHK: 100 % of controls
  RNA synthesis, preinc. in MEM: 93 % of controls
  RNA synthesis, preinc. in MEM+BHK: 100 % of controls
[3]; [16]
  DNA synthesis, preinc. in MEM: 100 % of controls
  DNA synthesis, preinc. in MEM+BHK: 100 % of controls
  Protein synthesis, preinc. in MEM: 100 % of controls
  Protein synthesis, preinc. in MEM+BHK: 100 % of controls
  RNA synthesis, preinc. in MEM: 100 % of controls
  RNA synthesis, preinc. in MEM+BHK: 100 % of controls
[4]; 0.05 mg/ml
  DNA synthesis: 43 % of controls
  Protein synthesis: 92 % of controls
  RNA synthesis: 84 % of controls
[4]; 0.15 mg/ml
  DNA synthesis: 11 % of controls
  Protein synthesis: 75 % of controls
  RNA synthesis: 53 % of controls
[4]; 0.5 mg/ml
  DNA synthesis: 0 % of controls
  Protein synthesis: 0 % of controls
  RNA synthesis: 0 % of controls
[5]; 0.05 mg/ml
  Cell growth: 72 % of controls
[5]; 0.15 mg/ml
  Cell growth: 41 % of controls
[5]; 0.5 mg/ml
  Cell growth: 0 % of controls
[6]
  Mitotic block (% increase of abnormal metaphases 2-4 h after treatment): ++ (+ + (50-100%))
  Mitotic inhibition, early (% reduction of normal prophases at the end of treatment): ++ (+ + (30-70%))
  Mitotic inhibition, late (% reduction of normal prophases 24 h after treatment): +++ (+ + + (> 70%))
[7]; 5 µg/ml
  Cell growth: 100 % control
[7]; 25 µg/ml
  Cell growth: 93 % control
[7]; 150 µg/ml
  Cell growth: 56 % control
[8]
  Solubility in water: Very low

## [Cl][Cr]([Cl])[Cl] [Chromium chloride]
[3]; [15]
  DNA synthesis, preinc. in MEM: 100 % of controls
  DNA synthesis, preinc. in MEM+BHK: 100 % of controls
  Protein synthesis, preinc. in MEM: 100 % of controls
  Protein synthesis, preinc. in MEM+BHK: 100 % of controls
  RNA synthesis, preinc. in MEM: 100 % of controls
  RNA synthesis, preinc. in MEM+BHK: 100 % of controls
[4]; 0.5 mg/ml
  DNA synthesis: 100 % of controls
  Protein synthesis: 100 % of controls
  RNA synthesis: 100 % of controls
[5]; 0.5 mg/ml
  Cell growth: 100 % of controls
[6]
  Mitotic block (% increase of abnormal metaphases 2-4 h after treatment): + (+ (<50%))
  Mitotic inhibition, early (% reduction of normal prophases at the end of treatment): ++ (+ + (30-70%))
  Mitotic inhibition, late (% reduction of normal prophases 24 h after treatment): + (+ (< 30%))
[7]; 50 µg/ml
  Cell growth: 95 % control
[8]
  Solubility in water: High

## [O]=[Cr](=[O])([O-])[O-].[Pb+2] [lead chromate]
[9]; fine suspension in water, ref Newbold et al.
  Mutagenicity for bacteria and mammalian cells in culture: inactive as a mutagen
[9]; solubilized in acids and alkalis, ref Nestmann et al.
  Point mutations in bacteria: induce point mutations
[2]
  Mutagenicity in the plate test: positive

## O=S(=O)([O-])[O-].O=S(=O)([O-])[O-].O=S(=O)([O-])[O-].[Cr+3].[Cr+3] [Chromium sulphate]
[3]; [15]
  DNA synthesis, preinc. in MEM: 82 % of controls
  DNA synthesis, preinc. in MEM+BHK: 100 % of controls
  Protein synthesis, preinc. in MEM: 100 % of controls
  Protein synthesis, preinc. in MEM+BHK: 100 % of controls
  RNA synthesis, preinc. in MEM: 87 % of controls
  RNA synthesis, preinc. in MEM+BHK: 100 % of controls
[4]; 0.5 mg/ml
  DNA synthesis: 45 % of controls
  Protein synthesis: 69 % of controls
  RNA synthesis: 55 % of controls
[5]; 0.5 mg/ml
  Cell growth: 68 % of controls
[6]
  Mitotic block (% increase of abnormal metaphases 2-4 h after treatment): + (+ (<50%))
  Mitotic inhibition, early (% reduction of normal prophases at the end of treatment): + (+ (< 30%))
  Mitotic inhibition, late (% reduction of normal prophases 24 h after treatment): + (+ (< 30%))
[7]; 5 µg/ml
  Cell growth: 100 % control
[7]; 25 µg/ml
  Cell growth: 100 % control
[7]; 150 µg/ml
  Cell growth: 93 % control

## Chromium sulphate [Chromium alum]
[1]
  Frequency of sarcomas at the site of injection: 20-25%
[3]; [15]
  DNA synthesis, preinc. in MEM: 92 % of controls
  DNA synthesis, preinc. in MEM+BHK: 100 % of controls
  Protein synthesis, preinc. in MEM: 100 % of controls
  Protein synthesis, preinc. in MEM+BHK: 100 % of controls
  RNA synthesis, preinc. in MEM: 100 % of controls
  RNA synthesis, preinc. in MEM+BHK: 100 % of controls
[4]; 0.5 mg/ml
  DNA synthesis: 66 % of controls
  Protein synthesis: 96 % of controls
  RNA synthesis: 89 % of controls
[5]; 0.5 mg/ml
  Cell growth: 88 % of controls
[6]
  Mitotic block (% increase of abnormal metaphases 2-4 h after treatment): + (+ (<50%))
  Mitotic inhibition, early (% reduction of normal prophases at the end of treatment): _
  Mitotic inhibition, late (% reduction of normal prophases 24 h after treatment): + (+ (< 30%))
[7]; 5 µg/ml
  Cell growth: 100 % control
[7]; 25 µg/ml
  Cell growth: 100 % control
[7]; 150 µg/ml
  Cell growth: 100 % control
